Values joined by “and” are separate entries in the source; they are usually repeats but may differ in a detail not shown here. Equal values may be shown once. Read-outs that look alike come from different tables or passages of the source.
Assays:
T. maritima RNase P [1] = assay: T. maritima RNase P inhibition (literature); assay type: biochemical; details: own PRORP IC50 against the cited T. maritima IC50 of 12.8 μM (ref 28)
PRORP1 C222A/C353A = molecular target: T1, PRORP1 C222A/C353A (Arabidopsis thaliana, UniProt Q66GI4, C222A/C353A); assay: Time-dependent inactivation by juglone, PRORP1 C222A/C353A; assay type: biochemical, A. thaliana
T1 construct: made in house
T1 sequence (Q66GI4 77-572 C222A/C353A): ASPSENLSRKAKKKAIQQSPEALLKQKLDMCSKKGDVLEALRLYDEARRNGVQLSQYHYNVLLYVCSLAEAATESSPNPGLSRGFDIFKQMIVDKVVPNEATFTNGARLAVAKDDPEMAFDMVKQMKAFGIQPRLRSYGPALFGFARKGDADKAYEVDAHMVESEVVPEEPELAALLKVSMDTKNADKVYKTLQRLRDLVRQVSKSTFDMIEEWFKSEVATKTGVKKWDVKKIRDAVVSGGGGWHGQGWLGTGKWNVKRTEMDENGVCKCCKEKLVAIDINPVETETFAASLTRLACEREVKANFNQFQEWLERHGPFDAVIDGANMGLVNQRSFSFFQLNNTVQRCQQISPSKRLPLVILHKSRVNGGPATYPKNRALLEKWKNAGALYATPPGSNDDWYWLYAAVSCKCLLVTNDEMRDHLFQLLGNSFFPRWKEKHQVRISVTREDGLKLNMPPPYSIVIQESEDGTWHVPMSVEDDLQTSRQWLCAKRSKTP
Experimental: (§1) Given the multiple sites of cysteine modification, we wanted to identify the one(s) that potentially play a significant role in PRORP1 inactivation. Therefore, several cysteine-to-alanine point mutants were expressed, purified, and subjected to inhibition studies. We tested both single-site (C353A and C373A) and double-site (C353A/C373A and C222A/C353A) mutations. […] The value of kinact,app for each PRORP1 at varied concentrations of juglone was determined by fitting a single exponential equation (Equation 5) to the data (Fig. 10A). Unexpectedly, the values of kinact/KI (reflecting the inhibition of E + I to form EI∗) increased for a number of the PRORP1 variants: wildtype (0.001 ± 0.00004 μM^-1 min^-1), C353A (0.005 ± 0.002 μM^−1 min^−1), C373A (0.002 ± 0.0004 μM^-1 min^−1), C222A/C353A (0.003 ± 0.0001 μM^−1 min^−1), and C353A/C373A (0.0008 ± 0.0002 μM^-1 min^−1). These modest increases could be due to a decrease in the KI value or an increase in the value of kinact. […] Although, we cannot discount the possibility, however unlikely, that juglone may employ a mode of inhibition beyond cysteine residue modification that our crystal structures fail to capture.
(§2) Figure 10 Effects of PRORP1 cysteine mutations on juglone inactivation. […]
(§3) For the analysis of juglone, PRORP1 activity was measured with varying preincubation time and juglone concentration. […]

PRORP1 C353A = molecular target: T2, PRORP1 C353A (Arabidopsis thaliana, UniProt Q66GI4, C353A); assay: Time-dependent inactivation by juglone, PRORP1 C353A; assay type: biochemical, A. thaliana
T2 construct: made in house
T2 sequence (Q66GI4 77-572 C353A): as the sequence (Q66GI4 77-572 C222A/C353A) above, with A146C counted along it
Experimental: as §1, §2, §3

PRORP1 C373A = molecular target: T3, PRORP1 C373A (Arabidopsis thaliana, UniProt Q66GI4, C373A); assay: Time-dependent inactivation by juglone, PRORP1 C373A; assay type: biochemical, A. thaliana
T3 construct: made in house
T3 sequence (Q66GI4 77-572 C373A): as the sequence (Q66GI4 77-572 C222A/C353A) above, with A146C, A277C, C297A counted along it
Experimental: as §1, §2, §3

T. maritima RNase P [2] = molecular target: T. maritima RNase P; design: method as in PMID 30997498; details: cited from earlier work
PRORP1 = molecular target: T4, PRORP1 (Arabidopsis thaliana, UniProt Q66GI4); assay: Mode of inhibition of gambogic acid, PRORP1 activity at varying pre-tRNA and inhibitor; assay type: biochemical, A. thaliana
T4 construct: made in house
T4 sequence (Q66GI4 77-572): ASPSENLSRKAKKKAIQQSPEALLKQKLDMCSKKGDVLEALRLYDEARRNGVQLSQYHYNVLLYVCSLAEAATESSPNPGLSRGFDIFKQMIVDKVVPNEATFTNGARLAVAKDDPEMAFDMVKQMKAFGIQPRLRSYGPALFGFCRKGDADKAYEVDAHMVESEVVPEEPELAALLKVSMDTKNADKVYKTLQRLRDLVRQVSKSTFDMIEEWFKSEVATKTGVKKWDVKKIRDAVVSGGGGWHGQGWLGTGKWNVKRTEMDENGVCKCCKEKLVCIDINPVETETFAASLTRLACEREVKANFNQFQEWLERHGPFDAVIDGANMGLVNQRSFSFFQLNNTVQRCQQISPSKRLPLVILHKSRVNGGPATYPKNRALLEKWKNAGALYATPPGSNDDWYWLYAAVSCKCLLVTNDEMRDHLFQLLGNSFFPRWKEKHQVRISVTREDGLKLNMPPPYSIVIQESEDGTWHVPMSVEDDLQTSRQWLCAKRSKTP
Experimental: Equation 2 was fit to each data set to calculate the values of kcat,app, and KM,app, and (kcat/KM)app. […] The dotted line simulates the fit of Equation 3 with n = 1. C, kcat/KM,app values for PRORP1 activity vary little as a function of the gambogic acid concentration. Error bars indicate standard errors obtained from fitting the data.
To identify the mode of inhibition of gambogic acid, PRORP1 activity was measured with varying pre-tRNA and gambogic acid concentrations. The Michaelis–Menten equation (Equation 2) was fit to each curve individually to calculate the apparent turnover rate constant (kcat,app) and apparent substrate concentration at half maximal activity (KM,app). […] (3) kcat,app=kcat/1+([I]/KI)^n (4) KM,app=KM/1+([I]/KI)^n

| Compound | times more potent against PRORP than T. maritima RNase P (T. maritima RNase P [1]) | kinact/KI (PRORP1 C222A/C353A) | inhibition at time 0 (PRORP1 C222A/C353A; double-cysteine mutation (C222A/C353A)) | Ki (PRORP1 C353A) | kinact/KI (PRORP1 C353A) | Ki (PRORP1 C373A) | kinact/KI (PRORP1 C373A) | IC50 (T. maritima RNase P [2]) | Hill coefficient (n), fit of Equation 3 (PRORP1; dependence of kcat,app on gambogic acid concentration) | Ki (PRORP1; global fit, read-out: KI, global fit analysis (Equations 2, 3, 4)) | mode of inhibition of PRORP1 (PRORP1; kcat,app decreases, (kcat/KM)app unchanged) | Ki (PRORP1; uncompetitive model, gambogic acid 0-1.6 μM, read-out: inhibition constant (KI), fit of Equation 3 to kcat,app) |
| --- | --- | --- | --- | --- | --- | --- | --- | --- | --- | --- | --- | --- |
| O=C1C=CC(=O)c2c(O)cccc21 [juglone, 5-hydroxy-1,4-naphthalenedione] | about 10 times | 50 M⁻¹ s⁻¹ | not observed | > 10 µM | 83.3 M⁻¹ s⁻¹ | > 10 µM | 33.3 M⁻¹ s⁻¹ | 12.8 µM | – | – | – | – |
| CC(C)=CCC[C@]1(C)C=Cc2c(O)c3c(c(CC=C(C)C)c2O1)O[C@]12C(=C[C@@H]4C[C@H]1C(C)(C)O[C@@]2(C/C=C(/C)C(=O)O)C4=O)C3=O [gambogic acid] | – | – | – | – | – | – | – | – | 4 and 3.8 ± 0.8 | 1.1 ± 0.03 µM | uncompetitive inhibitor | 1.08 ± 0.05 µM |

Reference: publication PMC9731865, “Gambogic acid and juglone inhibit RNase P through distinct mechanisms” (The Journal of Biological Chemistry, 2022)
